The values that follow come from ChEMBL document CHEMBL1150021, “Alkyl ether analogs of the FK-506 related, immunosuppressive macrolide L-683,590 (ascomycin)” (Bioorg Med Chem Lett, 1994).

Structures are written as SMILES.

Peptidyl-prolyl cis-trans isomerase FKBP1A, sequence (P62942 whole entry): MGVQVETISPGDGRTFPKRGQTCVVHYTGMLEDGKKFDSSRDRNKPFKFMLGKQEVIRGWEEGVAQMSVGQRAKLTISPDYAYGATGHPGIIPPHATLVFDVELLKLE

The first test concerns T-cell. The experiment in a line: In vitro evaluation for immunosuppressive activity against proliferation of antigen stimulated murine splenic T cells. The format is functional, cell-based. The following applies: Mus musculus.
The compound `CC[C@@H]1/C=C(\C)C[C@H](C)C[C@H](OC)[C@H]2O[C@@](O)(C(=O)C(=O)N3CCCC[C@H]3C(=O)O[C@H](/C(C)=C/[C@@H]3CC[C@@H](OCc4ccco4)[C@H](OC)C3)[C@H](C)[C@@H](O)CC1=O)[C@H](C)C[C@@H]2OC` returned an IC50 of 13.9 nM. That is a double-digit nanomolar value.

For the compound `C/C=C(C)/C=C/CO[C@@H]1CC[C@@H](/C=C(\C)[C@H]2OC(=O)[C@@H]3CCCCN3C(=O)C(=O)[C@]3(O)O[C@H]([C@@H](OC)C[C@@H](C)C/C(C)=C/[C@@H](CC)C(=O)C[C@H](O)[C@H]2C)[C@@H](OC)C[C@H]3C)C[C@H]1OC`, the IC50 was 6.9 nM. This IC50 is about 2-fold lower than that of the compound before.

For `CC[C@@H]1/C=C(\C)C[C@H](C)C[C@H](OC)[C@H]2O[C@@](O)(C(=O)C(=O)N3CCCC[C@H]3C(=O)O[C@H](/C(C)=C/[C@@H]3CC[C@@H](OC/C=C/c4cccc(F)c4)[C@H](OC)C3)[C@H](C)[C@@H](O)CC1=O)[C@H](C)C[C@@H]2OC`, the IC50 is 2.5 nM. Compared with the last compound, the IC50 is about 2.8-fold lower.

As for `CC[C@@H]1/C=C(\C)C[C@H](C)C[C@H](OC)[C@H]2O[C@@](O)(C(=O)C(=O)N3CCCC[C@H]3C(=O)O[C@H](/C(C)=C/[C@@H]3CC[C@@H](OC/C=C/c4ccc(Br)cc4)[C@H](OC)C3)[C@H](C)[C@@H](O)CC1=O)[C@H](C)C[C@@H]2OC`, half-maximal inhibition (IC50) required 14.5 nM.

The compound `CC[C@@H]1/C=C(\C)C[C@H](C)C[C@H](OC)[C@H]2O[C@@](O)(C(=O)C(=O)N3CCCC[C@H]3C(=O)O[C@H](/C(C)=C/[C@@H]3CC[C@@H](OCCCc4ccccc4)[C@H](OC)C3)[C@H](C)[C@@H](O)CC1=O)[C@H](C)C[C@@H]2OC` registered an IC50 of 3.5 nM.

The compound `CC[C@@H]1/C=C(\C)C[C@H](C)C[C@H](OC)[C@H]2O[C@@](O)(C(=O)C(=O)N3CCCC[C@H]3C(=O)O[C@H](/C(C)=C/[C@@H]3CC[C@@H](OC/C=C/c4ccc(OC)cc4)[C@H](OC)C3)[C@H](C)[C@@H](O)CC1=O)[C@H](C)C[C@@H]2OC` yielded an IC50 of 3.8 nM.

The compound `CC[C@@H]1/C=C(\C)C[C@H](C)C[C@H](OC)[C@H]2O[C@@](O)(C(=O)C(=O)N3CCCC[C@H]3C(=O)O[C@H](/C(C)=C/[C@@H]3CC[C@@H](OC/C=C/c4cc(F)cc(F)c4)[C@H](OC)C3)[C@H](C)[C@@H](O)CC1=O)[C@H](C)C[C@@H]2OC` had an IC50 of 3.9 nM.

`CC[C@@H]1/C=C(\C)C[C@H](C)C[C@H](OC)[C@H]2O[C@@](O)(C(=O)C(=O)N3CCCC[C@H]3C(=O)O[C@H](/C(C)=C/[C@@H]3CC[C@@H](OCc4ccccc4)[C@H](OC)C3)[C@H](C)[C@@H](O)CC1=O)[C@H](C)C[C@@H]2OC` yielded an IC50 of 3 nM.

`CC#CCO[C@@H]1CC[C@@H](/C=C(\C)[C@H]2OC(=O)[C@@H]3CCCCN3C(=O)C(=O)[C@]3(O)O[C@H]([C@@H](OC)C[C@@H](C)C/C(C)=C/[C@@H](CC)C(=O)C[C@H](O)[C@H]2C)[C@@H](OC)C[C@H]3C)C[C@H]1OC` displayed an IC50 of 6.1 nM.

As to `CC[C@@H]1/C=C(\C)C[C@H](C)C[C@H](OC)[C@H]2O[C@@](O)(C(=O)C(=O)N3CCCC[C@H]3C(=O)O[C@H](/C(C)=C/[C@@H]3CC[C@@H](OCc4cccs4)[C@H](OC)C3)[C@H](C)[C@@H](O)CC1=O)[C@H](C)C[C@@H]2OC`, the IC50 came to 7.1 nM.

For the compound `CC[C@@H]1/C=C(\C)C[C@H](C)C[C@H](OC)[C@H]2O[C@@](O)(C(=O)C(=O)N3CCCC[C@H]3C(=O)O[C@H](/C(C)=C/[C@@H]3CC[C@@H](OC(C)C)[C@H](OC)C3)[C@H](C)[C@@H](O)CC1=O)[C@H](C)C[C@@H]2OC`, the IC50 turned out to be 12.5 nM. This IC50 is about 1.8-fold higher than that of the compound before.

As for `CC[C@@H]1/C=C(\C)C[C@H](C)C[C@H](OC)[C@H]2O[C@@](O)(C(=O)C(=O)N3CCCC[C@H]3C(=O)O[C@H](/C(C)=C/[C@@H]3CC[C@@H](OC(C)c4ccccc4)[C@H](OC)C3)[C@H](C)[C@@H](O)CC1=O)[C@H](C)C[C@@H]2OC` (stereo not given in full), the IC50 amounted to 11.3 nM.

`CC[C@@H]1/C=C(\C)C[C@H](C)C[C@H](OC)[C@H]2O[C@@](O)(C(=O)C(=O)N3CCCC[C@H]3C(=O)O[C@H](/C(C)=C/[C@@H]3CC[C@@H](OC/C=C/C4CCCCC4)[C@H](OC)C3)[C@H](C)[C@@H](O)CC1=O)[C@H](C)C[C@@H]2OC` registered an IC50 of 5.5 nM.

`CC[C@@H]1/C=C(\C)C[C@H](C)C[C@H](OC)[C@H]2O[C@@](O)(C(=O)C(=O)N3CCCC[C@H]3C(=O)O[C@H](/C(C)=C/[C@@H]3CC[C@@H](OC/C=C/c4cccc([N+](=O)[O-])c4)[C@H](OC)C3)[C@H](C)[C@@H](O)CC1=O)[C@H](C)C[C@@H]2OC` gave an IC50 of 1.9 nM.

In turn, `CC[C@@H]1/C=C(\C)C[C@H](C)C[C@H](OC)[C@H]2O[C@@](O)(C(=O)C(=O)N3CCCC[C@H]3C(=O)O[C@H](/C(C)=C/[C@@H]3CC[C@@H](OC/C=C/c4cccc(O)c4)[C@H](OC)C3)[C@H](C)[C@@H](O)CC1=O)[C@H](C)C[C@@H]2OC` came in with a concentration for half-maximal inhibition (IC50) of 0.8 nM.

`CC[C@@H]1/C=C(\C)C[C@H](C)C[C@H](OC)[C@H]2O[C@@](O)(C(=O)C(=O)N3CCCC[C@H]3C(=O)O[C@H](/C(C)=C/[C@@H]3CC[C@@H](OCC#Cc4ccccc4)[C@H](OC)C3)[C@H](C)[C@@H](O)CC1=O)[C@H](C)C[C@@H]2OC` registered an IC50 of 2.7 nM. This IC50 is about 3.4-fold higher than that of the compound before.

`CC[C@@H]1/C=C(\C)C[C@H](C)C[C@H](OC)[C@H]2O[C@@](O)(C(=O)C(=O)N3CCCC[C@H]3C(=O)O[C@H](/C(C)=C/[C@@H]3CC[C@@H](OC/C=C/C(C)(C)C)[C@H](OC)C3)[C@H](C)[C@@H](O)CC1=O)[C@H](C)C[C@@H]2OC` registered an IC50 of 14.2 nM.

`CC[C@@H]1/C=C(\C)C[C@H](C)C[C@H](OC)[C@H]2O[C@@](O)(C(=O)C(=O)N3CCCC[C@H]3C(=O)O[C@H](/C(C)=C/[C@@H]3CC[C@@H](OC/C(C)=C/c4ccccc4)[C@H](OC)C3)[C@H](C)[C@@H](O)CC1=O)[C@H](C)C[C@@H]2OC` displayed an IC50 of 5.5 nM.

`CC[C@@H]1/C=C(\C)C[C@H](C)C[C@H](OC)[C@H]2O[C@@](O)(C(=O)C(=O)N3CCCC[C@H]3C(=O)O[C@H](/C(C)=C/[C@@H]3CC[C@@H](OC/C=C/c4ccc(F)cc4)[C@H](OC)C3)[C@H](C)[C@@H](O)CC1=O)[C@H](C)C[C@@H]2OC` had an IC50 of 5.5 nM.

`CC[C@@H]1/C=C(\C)C[C@H](C)C[C@H](OC)[C@H]2O[C@@](O)(C(=O)C(=O)N3CCCC[C@H]3C(=O)O[C@H](/C(C)=C/[C@@H]3CC[C@@H](OC/C=C/c4ccc(Cl)cc4)[C@H](OC)C3)[C@H](C)[C@@H](O)CC1=O)[C@H](C)C[C@@H]2OC` displayed an IC50 of 15.8 nM. Against the preceding compound, the IC50 is about 2.9-fold higher.

With `C=CC[C@@H]1/C=C(\C)C[C@H](C)C[C@H](OC)[C@H]2O[C@@](O)(C(=O)C(=O)N3CCCC[C@H]3C(=O)O[C@H](/C(C)=C/[C@@H]3CC[C@@H](O)[C@H](OC)C3)[C@H](C)[C@@H](O)CC1=O)[C@H](C)C[C@@H]2OC` [TACROLIMUS ANHYDROUS], the IC50 was determined as 0.29 nM.

The next test has as its target Peptidyl-prolyl cis-trans isomerase FKBP1A (Homo sapiens, UniProt P62942). Put plainly: Ability to bind the major cystolic receptor FK506 binding protein 12 by using competitive binding assay.
Details: not given
Consider `CC[C@@H]1/C=C(\C)C[C@H](C)C[C@H](OC)[C@H]2O[C@@](O)(C(=O)C(=O)N3CCCC[C@H]3C(=O)O[C@H](/C(C)=C/[C@@H]3CC[C@@H](OC/C=C/c4ccc(Br)cc4)[C@H](OC)C3)[C@H](C)[C@@H](O)CC1=O)[C@H](C)C[C@@H]2OC`, for which a half-maximal response (EC50) required 23 nM.

`CC[C@@H]1/C=C(\C)C[C@H](C)C[C@H](OC)[C@H]2O[C@@](O)(C(=O)C(=O)N3CCCC[C@H]3C(=O)O[C@H](/C(C)=C/[C@@H]3CC[C@@H](OC/C=C/c4ccc(O)cc4)[C@H](OC)C3)[C@H](C)[C@@H](O)CC1=O)[C@H](C)C[C@@H]2OC`: a half-maximal effect (EC50) was put at 20.5 nM. This EC50 and that of the compound before are within 1.5-fold of each other.

In the case of `CC[C@@H]1/C=C(\C)C[C@H](C)C[C@H](OC)[C@H]2O[C@@](O)(C(=O)C(=O)N3CCCC[C@H]3C(=O)O[C@H](/C(C)=C/[C@@H]3CC[C@@H](OC/C=C/c4cccc([N+](=O)[O-])c4)[C@H](OC)C3)[C@H](C)[C@@H](O)CC1=O)[C@H](C)C[C@@H]2OC`, the EC50 worked out at 34.3 nM. Compared with the last compound, the EC50 is about 1.7-fold higher.

On to `CC[C@@H]1/C=C(\C)C[C@H](C)C[C@H](OC)[C@H]2O[C@@](O)(C(=O)C(=O)N3CCCC[C@H]3C(=O)O[C@H](/C(C)=C/[C@@H]3CC[C@@H](O)[C@H](OC)C3)[C@H](C)[C@@H](O)CC1=O)[C@H](C)C[C@@H]2OC` [ASCOMYCIN], for which the EC50 came out at 1.6 nM.
